The nature of the data set: Partition coefficient (logP). Particulars: octanol/water. It counts as physicochemical.

In ChEMBL document CHEMBL1141163, “QSAR studies of copper azamacrocycles and thiosemicarbazones: MM3 parameter development and prediction of biological properties” (J Med Chem, 2005) one finds logP data, which are given here for one substance.

As to Copper(II) Complex, the log partition coefficient (logP) was -2.29.
